System: wood-destroying soil-dwelling termites (Reticulitermes santonensis)
Assay: Laboratory termite resistance test of treated wood specimens (AWPA E1-97) after leaching according to DIN EN 84
Format: in vivo
Details: Test termite R. santonensis; Pinus spp. (Southern Yellow Pine) specimens 25x25x6 mm^3; AWPA E1-97, 4 weeks; α-cypermethrin concentration in wood giving score 10 to 9
Experimental: The aqueous active ingredient composition according to the invention of Example 3 was diluted with water to three different active ingredient concentrations. For comparison purposes, the anionic dispersion D6, which is not in accordance with the invention, was studied, and α-cypermethrin was dissolved in acetone, and the solution was diluted with further acetone to give the active ingredient concentrations in question.
To determine the limits of the efficacy of the composition according to the invention with regard to wood-destroying soil-dwelling termites (Reticulitermes santonensis), wood specimens of Pinus spp. with the dimensions 25×25×6 mm^3 (Southern Yellow Pine) were tested in accordance with the American test standard AWPA E1-97 (see, in this context, “Standard method for laboratory evaluation to determine resistance to subterranean termites”, American Wood-Preservers' Association, 2001) under constrained experimental conditions after leaching according to DIN EN 84: 1997-01 (see, in this context, “accelerated aging of treated timber before biological tests”, European standardization committee).
The destruction of the timber caused by attack by the termites was registered after 4 weeks of testing by visually scoring the timber specimens as specified in AWPA E1-97. In addition, the mortality rate among the termites was estimated. […]

CC1(C)C(C=C(Cl)Cl)C1C(=O)OC(C#N)c1cccc(Oc2ccccc2)c1 (stereo not drawn) [Solution of α-cypermethrin, α-cypermethrin]
Limits of the efficacy after leaching (EN 84): 29-40 g/m^3
